# In patent EP0046349A1, “Clavulanic acid derivatives, their preparation and use” (BEECHAM GROUP PLC, priority 1980, dated 1982):
# Assays:
# Format in all cases: cell-based
# Staph. aureus Russell [1] = assay: standard antibacterial test; set-up: unit not given here; settings: compound alone
# Excerpt: IN A STANDARD ANTIBACTERIAL TEST, THE FOLLOWING DATA WERE OBTAINED
# Staph. aureus Russell [2] = assay: standard MIC synergy test
# Excerpt: (§1) […]
# Escherichia coli JT39 = assay: standard MIC synergy test
# Excerpt: as §1
# Klebsiella Aerogenes E70 = assay: standard MIC synergy test; settings: Amoxycillin alone, no inhibitor (comparison); unit assumed
# Excerpt: as §1
# [3] = Concentration of inhibitor 5.0 μg/ml, MIC of amoxycillin in presence of inhibitor, 'Inhibited' = inhibitor alone inhibits growth
# [4] = Concentration of inhibitor 1.0 μg/ml, MIC of amoxycillin in presence of inhibitor, 'Inhibited' = inhibitor alone inhibits growth
# [5] = Concentration of inhibitor 5.0 μg/ml, MIC of amoxycillin in presence of inhibitor
# [6] = Amoxycillin alone, no inhibitor (comparison), unit assumed
SMILES,"MIC synergy test, Staph. aureus Russell (Staph. aureus Russell [2]; [3])","standard antibacterial test, Staph. Aureus Russell (Staph. aureus Russell [1])",also measured
"CC(=NC/C=C1\O[C@@H]2CC(=O)N2[C@H]1C(=O)O)NCC(C)C [Example 3, 9-N-[1'-(N-isobutyl)aminoethylidene]amino-9-deoxyclavulanic acid]",Inhibited,4.0,
"CC(=NC/C=C1\O[C@@H]2CC(=O)N2[C@H]1C(=O)O)NCC(=O)O [Example 10, Potassium 9-N-[1-(N-Carboxylatomethyl)aminoethylidene]amino-9-deoxyclavulanic acid]",,62.5,
"CC1(C)S[C@@H]2[C@H](NC(=O)[C@H](N)c3ccc(O)cc3)C(=O)N2[C@H]1C(=O)O [Amoxy-cillin, amoxycillin, reference compound]",,,"MIC synergy test, Staph. aureus Russell (Staph. aureus Russell [2]; [6]): 500 µg/mL; MIC synergy test, Klebsiella Aerogenes E70 (Klebsiella Aerogenes E70): 1000 µg/mL; MIC synergy test, Escherichia coli JT39 (Escherichia coli JT39; [6]): 2000 µg/mL"
"O=C(O)[C@H]1/C(=C/CN=CNCc2ccccc2)O[C@@H]2CC(=O)N21 [Example 6, 9-N-(N-benzylaminomethylene)amino-9-deoxyclavulanic acid]",Inhibited,2.0,"MIC synergy test, Staph. aureus Russell (Staph. aureus Russell [2]; [4]): Inhibited"
"CC(=NC/C=C1\O[C@@H]2CC(=O)N2[C@H]1C(=O)O)NCCCCCC(=O)O [Example 9, Lithium 9-N-[1-(N-5'Carboxylatopentyl)aminoethylidene]amino-9-deoxyclavlanic acid]",,62.5,
"CC(N)=NC/C=C1\O[C@@H]2CC(=O)N2[C@H]1C(=O)O [Example 2, 9-N-(1'-aminoethylidene)amino-9-deoxyclavulanic acid]",Inhibited,16.0,
"CC(=NC/C=C1\O[C@@H]2CC(=O)N2[C@H]1C(=O)O)NCc1ccccc1 [Example 4, 9-N-[1-(N-benzyl)aminoethylidene]amino-9-deoxyclavulanic acid]",Inhibited,2.0,
"CSCC(N)=NC/C=C1\O[C@@H]2CC(=O)N2[C@H]1C(=O)O [Example 28, 9-N-(1'-amino-2'-methylthioethylidene) amino-9-deoxyclavulanic acid.]",,2.0,
"NC=NC/C=C1\O[C@@H]2CC(=O)N2[C@H]1C(=O)O [Example 5, 9-N-(aminomethylene)amino-9-deoxyclavulanic acid]",Inhibited,4.0,
"NC(Cc1cccs1)=NC/C=C1\O[C@@H]2CC(=O)N2[C@H]1C(=O)O [Example 29, 9-N-(1-amino-2-[2'-thienyl]ethylidene) amino-9-deoxyclavulanic acid.]",,2.0,
"CC(=NC/C=C1\O[C@@H]2CC(=O)N2[C@H]1C(=O)O)NCCCCCC(=O)OCc1ccccc1 [Example 8, 9-N-[1(N-5-benzyloxycarbonylpentyl)aminoethylidene]amino-9-deoxyclavulanic acid]",Inhibited,8.0,
"NC(=NC/C=C1\O[C@@H]2CC(=O)N2[C@H]1C(=O)O)c1ccccc1 [Example 7, 9 N-(1-aminobenzylidene)amino-9-deoxyclavulanic acid]",Inhibited,8.0,
"COCCC(N)=NC/C=C1\O[C@@H]2CC(=O)N2[C@H]1C(=O)O [Example 13, 9-N-(1'-amino-3'-methoxypropylidene)amino-9-deoxyclavulanic acid]",,16.0,
"CN(C)C=NC/C=C1\O[C@@H]2CC(=O)N2[C@H]1C(=O)O [Example 1, 9-N-(Dimethylaminomethylene) amino-9-deoxyclavulanic acid]",Inhibited,4.0,

# Further lines, with some results ahead:
"MIC synergy test, Staph. aureus Russell (Staph. aureus Russell [2]; [3])",SMILES,"standard antibacterial test, Staph. Aureus Russell (Staph. aureus Russell [1])",also measured
Inhibited,"O=C(O)[C@H]1/C(=C/CN=C2CCCCN2)O[C@@H]2CC(=O)N21 [Example 31, 9-N-(2-piperidylidene) amino-9-deoxyclavulanic acid.]",1.0,"MIC synergy test, Staph. aureus Russell (Staph. aureus Russell [2]; [4]): Inhibited"
Inhibited,"NC(=NC/C=C1\O[C@@H]2CC(=O)N2[C@H]1C(=O)O)C1CCC1 [Example 20, 9-N-(amino-cyclobutylmethylene) amino-9-deoxyclavulanic acid.]",4.0,"MIC synergy test, Escherichia coli JT39 (Escherichia coli JT39; [5]): Inhibited"
Inhibited,"CCCC(N)=NC/C=C1\O[C@@H]2CC(=O)N2[C@H]1C(=O)O [Example 12, 9-N-(1-aminobutylidene)amino-9-deoxyclavulanic acid]",4.0,
Inhibited,"O=C(O)[C@H]1/C(=C/CN=CN2CCCCCC2)O[C@@H]2CC(=O)N21 [Example 27, 9-N-(N,N-hexamethyleneaminomethylene) aimno-9-deoxyclavulanic acid.]",1.0,"MIC synergy test, Staph. aureus Russell (Staph. aureus Russell [2]; [4]): Inhibited"
Inhibited,"CNC(C)=NC/C=C1\O[C@@H]2CC(=O)N2[C@H]1C(=O)O [Example 24, 9-N-[l-(N-methyl)aminoethylidene] amino-9-deoxyclavulanic acid.]",8.0,
Inhibited,"CC(C)C(N)=NC/C=C1\O[C@@H]2CC(=O)N2[C@H]1C(=O)O [Example 16, 9-N-(1 t-amino-2'-methylpropylidene) amino-9-deoxyclavulanic acid.]",4.0,
Inhibited,"CC(=NC/C=C1\O[C@@H]2CC(=O)N2[C@H]1C(=O)O)N(C)C [Example 22, 9-N-[1-(N,N-dimethyl)aminoethylidene] amino-9-deoxyclavulanic acid.]",≤0.5,"MIC synergy test, Staph. aureus Russell (Staph. aureus Russell [2]; [4]): Inhibited; MIC synergy test, Escherichia coli JT39 (Escherichia coli JT39; [5]): Inhibited"
Inhibited,"CCCCC(N)=NC/C=C1\O[C@@H]2CC(=O)N2[C@H]1C(=O)O [Example 18, 9-N-(l-aminopentylidene) amino-9-deoxyclavulanic acid.]",2.0,
Inhibited,"NC(=NC/C=C1\O[C@@H]2CC(=O)N2[C@H]1C(=O)O)C1CC1 [Example 19, 9-N-(amino-cyclopropylmethylene) amino-9-deoxyclavulanic acid.]",4.0,"MIC synergy test, Escherichia coli JT39 (Escherichia coli JT39; [5]): Inhibited"
Inhibited,CNC(=NC/C=C1\O[C@@H]2CC(=O)N2[C@H]1C(=O)O)c1ccccc1 [Example 23],2.0,"MIC synergy test, Staph. aureus Russell (Staph. aureus Russell [2]; [4]): Inhibited"
Inhibited,"O=C(O)[C@H]1/C(=C/CN=C2CCCN2)O[C@@H]2CC(=O)N21 [Example 30, 9-N-(2-pyrrolidylidene) amino-9-deoxyclavulanic acid.]",1.0,"MIC synergy test, Staph. aureus Russell (Staph. aureus Russell [2]; [4]): Inhibited"
Inhibited,CCNC(C)=NC/C=C1\O[C@@H]2CC(=O)N2[C@H]1C(=O)O [Example 25],4.0,
Inhibited,"CCN(C=NC/C=C1\O[C@@H]2CC(=O)N2[C@H]1C(=O)O)CC [Example 21, 9-N-(diethylaminomethylene) amino-9-deoxyclavulanic acid.]",4.0,
Inhibited,"O=C(O)[C@H]1/C(=C/CN=CN2CCCCC2)O[C@@H]2CC(=O)N21 [Example 26, 9-N-(N,N-pentamethyleneaminomethylene) amino-9-deoxyolavulanic acid.]",≤0.5,"MIC synergy test, Staph. aureus Russell (Staph. aureus Russell [2]; [4]): Inhibited"
Inhibited,"CNC=NC/C=C1\O[C@@H]2CC(=O)N2[C@H]1C(=O)O [Example 11, 9-N-(N-methylaminomethylene)amino-9-deoxyclavulanic acid]",4.0,
Inhibited,"CCC(N)=NC/C=C1\O[C@@H]2CC(=O)N2[C@H]1C(=O)O [Example 14, 9-N-(1'aminopropylidene)amino-9-deoxyclavulanic acid]",4.0,
